Data set [1] is described as follows: Thermal stability of crystal forms upon heating (Table 4).
The nature of data set [2]: Stability of linezolid Form X stored at 0-100% relative humidity. Format: physicochemical. How it is done: The stability of linezolid Form X was tested by storing it for 8 days at a relative humidity of between 0 and 100% at room temperature.
For data set [3] the following is noted: below about 85°; cited from earlier work.
A short description of data set [4]: Stability and hygroscopicity of linezolid Form VI stored at 0-100% relative humidity. Format: physicochemical. How it is done:
The stability and hygroscopicity of linezolid Form VI was tested by storing it for 19 days at a relative humidity of between 0 and 100% at room temperature.

Setting [5] is: 8 days, room temperature, relative humidity 100%.
[6] abbreviates: 19 days, room temperature, relative humidity 80%.
The mark [7] stands for this setting: 19 days, room temperature, relative humidity 100%.

SMILES strings stand for the structures.

In the case of `CC(=O)NC[C@H]1CN(c2ccc(N3CCOCC3)c(F)c2)C(=O)O1` [Form TIII, (S)—N-[[3-[3-Fluoro-4-(4-morpholinyl)phenyl]-2-oxo-5-oxazo-lidinyl]methyl]-acetamide], the “Crystal form after heating” value is “TIII” in data set [1] (heating temp. 60 °C, listed as TIII) and “TIII” in data set [1] (heating temp. 130 °C).

Consider `CC(=O)NC[C@H]1CN(c2ccc(N3CCOCC3)c(F)c2)C(=O)O1` [Form X, (S)—N-[[3-[3-Fluoro-4-(4-morpholinyl)phenyl]-2-oxo-5-oxazo-lidinyl]methyl]-acetamide], for which the Solvent content in data set [2] (8 days, room temperature, relative humidity 0%) worked out at 1.6%; in data set [2] (8 days, room temperature, relative humidity 20%), 1.5%; in data set [2] (8 days, room temperature, relative humidity 40%), 1.4%; in data set [2] (8 days, room temperature, relative humidity 60%) it was 2.0%; in data set [2] (8 days, room temperature, relative humidity 80%), 2.4%; in data set [2] (setting [5]), 0.7%. The Solvent content in data set [2] (As is (before storage)) is 1.9 (water content 1.9) %. The “Crystal Form” value in data set [2] (setting [5]) was “Form X + II”. Further, the water content in data set [2] (As is (before storage)) is given as 1.9 (water content 1.9) %. Besides, in data set [2] (at 100% RH), the Form conversion entry is listed as “some of Form X converts to Form II”. Further, the Stability result in data set [2] (between 0-80% RH) is “stable”. Further, the “Crystal form after heating” value in data set [1] (heating temp. 60 °C, listed as X) is “Amorphous”.

As for `CC(=O)NC[C@H]1CN(c2ccc(N3CCOCC3)c(F)c2)C(=O)O1` [Form V, (S)—N-[[3-[3-Fluoro-4-(4-morpholinyl)phenyl]-2-oxo-5-oxazo-lidinyl]methyl]-acetamide], the “Thermal stability (transformation into other forms upon heating)” value in data set [1] (heating at about 60° C. to about 130° C.) is recorded as “thermally stable”.

Regarding `CC(=O)NC[C@H]1CN(c2ccc(N3CCOCC3)c(F)c2)C(=O)O1` [Form II], in data set [3], the “Relative stability of the crystal form” value was “most stable form”.

`CC(=O)NC[C@H]1CN(c2ccc(N3CCOCC3)c(F)c2)C(=O)O1` [Form VI, (S)—N-[[3-[3-Fluoro-4-(4-morpholinyl)phenyl]-2-oxo-5-oxazo-lidinyl]methyl]-acetamide]: the Solvent content in data set [4] (19 days, room temperature, relative humidity 0%) is 0.4%; in data set [4] (19 days, room temperature, relative humidity 20%), 0.4%; in data set [4] (19 days, room temperature, relative humidity 40%), 0.4%; in data set [4] (19 days, room temperature, relative humidity 60%), 0.3%; in data set [4] (setting [6]), 31.7%; in data set [4] (setting [7]), 53.2%. For the same molecule, the Solvent content in data set [4] (As is (before storage)) is 0.9%. Also, the “Crystal Form” value in data set [4] (setting [6]) was “VI + Amorphous”; in data set [4] (setting [7]), “Amorphous”. The water content in data set [4] (As is (before storage)) came to 0.7%. In addition, in data set [4] (at 80-100% RH), the Form conversion entry was “converts to Amorphous Linezolid”. Further, the Stability and hygroscopicity entry in data set [4] (between 0-60% RH) was “stable and non-hygroscopic”. In data set [4] (on high relative humidity), the Hygroscopicity result is given as “hygroscopic”.

Source of the values: patent publication US20060111350A1, “Solid forms of linezolid and processes for preparation thereof” (priority 2004, published 2006).
